Test results from paper PMC6728800, “Effect of piceatannol-rich passion fruit seed extract on human glyoxalase I–mediated cancer cell growth” (Biochemistry and Biophysics Reports, 2019).
pIC50: −log10 of the molar value. Like-named read-outs stand apart in the source and are kept apart here.

Target: T1, human glyoxalase I (GLO I) (Homo sapiens, UniProt Q04760)
T1 construct: gene GLO1; recombinant GLO I
T1 sequence (Q04760 2-184): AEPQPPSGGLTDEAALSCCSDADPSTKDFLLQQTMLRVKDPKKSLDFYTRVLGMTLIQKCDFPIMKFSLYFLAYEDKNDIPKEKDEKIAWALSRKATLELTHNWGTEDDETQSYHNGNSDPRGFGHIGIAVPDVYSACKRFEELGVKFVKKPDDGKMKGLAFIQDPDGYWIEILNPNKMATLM
Test: spectrophotometric assay of S-D-lactoylglutathione formation at […] nm with recombinant GLO I
Format: biochemical

Row | Structure (SMILES) | pIC50 (read-out: IC50) | pIC50
1 | Oc1cc(O)cc(C2c3c(/C=C/c4ccc(O)c(O)c4)cc(O)cc3OC2c2ccc(O)c(O)c2)c1 (centres unmarked) [scirpusin B] | 5.38 | –
2 | Oc1cc(O)cc(/C=C/c2ccc(O)c(O)c2)c1 [piceatannol] | – | 6.12
